Structures are written as SMILES.

The first assay deals with T1, human liver FBPase (Homo sapiens, UniProt P09467).
T1 construct: made in house; host or cells: E. coli BL21
T1 sequence (P09467 2-338 limits assumed): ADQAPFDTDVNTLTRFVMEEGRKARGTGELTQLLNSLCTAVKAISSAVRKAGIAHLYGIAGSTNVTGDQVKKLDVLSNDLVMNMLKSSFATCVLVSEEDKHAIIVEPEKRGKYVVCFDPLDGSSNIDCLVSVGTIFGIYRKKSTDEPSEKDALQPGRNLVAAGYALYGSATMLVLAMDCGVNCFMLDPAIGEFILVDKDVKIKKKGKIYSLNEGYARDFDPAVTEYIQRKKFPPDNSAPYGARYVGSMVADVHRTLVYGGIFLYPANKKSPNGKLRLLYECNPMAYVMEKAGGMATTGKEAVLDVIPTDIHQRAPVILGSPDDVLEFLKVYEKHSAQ
As to the kind of experiment: Inhibition of human liver FBPase. The settings on record: N-acetyl-1.1 relative to 1.1. It counts as biochemical. As for the experimental part: E. coli strain BL21 transformed with a human liver FBPase-encoding plasmid was obtained from Dr. M. R. El-Maghrabi at the State University of New York at Stony Brook. […] Enzymatic activity was measured spectrophotometrically in reactions that coupled the formation of product (fructose 6-phosphate) to the reduction of dimethylthiazoldiphenyltetrazolium bromide (MTT) via NADP^+ and phenazine methosulfate (PMS), using phosphoglucose isomerase and glucose 6-phosphate dehydrogenase as the coupling enzymes. Reaction mixtures (200 μl) were made up in 96-well microtitre plates, and consisted of 50 mM Tris-HCl, pH 7.4, 100 mM KCl, 5 mM EGTA, 2 mM MgCl2, 0.2 mM NADP, 1 mg/ml BSA, 1 mM MTT, 0.6 mM PMS, 1 unit/ml phosphoglucose isomerase, 2 units/ml glucose 6-phosphate dehydrogenase, and 0.150 mM substrate (fructose 1,6-bisphosphate). Inhibitor concentrations were varied from 0.01 μM to 10 μM. Reactions were started by the addition of 0.002 units of pure hlFBPase, and were monitored for 7 min. at 590 nm in a Molecular Devices Plate Reader (37° C.).
In the case of `CC(=O)Nc1nc(-c2ccc(P(=O)(O)O)o2)c(C(=O)C(C)(C)C)s1` [N-acetyl-1.1, reference compound], the “rightward shift in potency in the FBPase assay on N-acetylation” value is reported as 74.5 fold.

The assay is the same for the next values; noted with them: purified recombinant human liver FBPase, 0.150 mM fructose 1,6-bisphosphate, 37° C.; read-out: IC50 (hlFBPase).
Regarding `Nc1nc(-c2ccc(P(=O)(O)O)o2)c(C(=O)C2CCCC2)s1` [Compound 1.30, [5-(2-amino-5-cyclopentylcarbonylthiazol-4-yl)furan-2-yl]-phosphonic acid], the IC50 came to 14 nM. The same measure, in the same setting: the same measure for `Nc1nc(-c2ccc(P(=O)(O)O)o2)c(C(=O)c2ccc(F)cc2)s1` [Compound 1.22, [5-(2-amino-5-(4-fluorobenzoyl)thiazol-4-yl)furan-2-yl]-phosphonic acid]: 33 nM. On the same count and under the same terms, the same measure for `Nc1nc(-c2ccc(P(=O)(O)O)o2)c(C(=O)c2cccc(F)c2)s1` [Compound 1.8, [5-(2-amino-5-(3-fluorobenzoyl)thiazol-4-yl)furan-2-yl]-phosphonic acid]: 37 nM; for `COc1cccc(C(=O)c2sc(N)nc2-c2ccc(P(=O)(O)O)o2)c1` [Compound 1.18, [5-(2-amino-5-(3-methoxybenzoyl)thiazol-4-yl)furan-2-yl]-phosphonic acid]: 85 nM. Same read-out and setting: with `Nc1nc(-c2ccc(P(=O)(O)O)o2)c(C(=O)c2ccc(N3CCCC3)c(Cl)c2)s1` [Compound 1.21, [5-(2-amino-5-(3-chloro-4-(1-pyrrolidinyl)benzoyl)-thiazol-4-yl)furan-2-yl]-phosphonic acid] the figure was 54 nM.

Take `CC(=O)Nc1nc(-c2ccc(P(=O)(O)O)o2)c(C(=O)C(C)(C)C)s1` [N-acetyl-1.1, reference compound]: the IC50 came to 2310 nM. Take `Nc1nc(-c2ccc(P(=O)(O)O)o2)c(C(=O)c2cccs2)s1` [Compound 1.7, [5-(2-amino-5-(2-thienylcarbonyl)thiazol-4-yl)furan-2-yl]-phosphonic acid]: the IC50 turned out to be 41 nM.

For a further assay, the system named is Sprague-Dawley rats. The assay can be described thus: Glucose lowering following oral administration to the fasted, normal rat. It is filed as in vivo. The settings on record: maximum lowering relative to saline controls, 10 mg/kg oral, 18-h fasted rats. The protocol: Compounds were administered by oral gavage to 18-h fasted, Sprague-Dawley rats (250-300 g, n=3/4/group) at a dose of 10 mg/kg. Phosphonic acids (active moieties) were prepared in deionized water, and the solution adjusted to neutrality with sodium hydroxide. Prodrugs were dissolved in polyethylene glycol (mw 400). Blood samples were taken via tail vein nick immediately prior to dosing and at 1 h intervals thereafter. Blood glucose was analyzed by means of a HemoCue glucose analyzer (HemoCue Inc., Mission Viejo, Calif.). The table below indicates the maximum % glucose lowering achieved relative to control animals dosed with saline.
With `CCOC(=O)COP(=O)(N[C@@H](C)C(=O)OC(C)C)c1ccc(-c2nc(N)sc2C(=O)C(C)(C)C)o1` (stereo partly drawn) [Compound 5.6, 2-amino-5-(2,2-dimethylpropionyl)-4-{2-[5-(N-((S)-1-isopropyloxy-carbonyl)ethyl)-O-(ethoxycarbonylmethyl)monophosphonamido]furanyl}-thiazole], the inhibition in vivo at 10 mg/kg amounted to 4%. Compound `CC(C)(C)C(=O)c1sc(N)nc1-c1ccc(P2(=O)OCC[C@H](c3cccc(Cl)c3)O2)o1` (stereo partly drawn) [Compound 7.2, (trans)-2-amino-5-(2,2-dimethylpropionyl)-4-{[5-(4-(3-chlorophenyl)-2-oxo-1,3,2-phosphorinan-2-yl)]furan-2-yl}thiazole] showed an inhibition in vivo at 10 mg/kg of 3%. The same measure, in the same setting: with `CCC(CC)C(=O)c1sc(N)nc1-c1ccc(P(=O)(N[C@@H](C)C(=O)OC(C)C)N[C@@H](C)C(=O)OC(C)C)o1` [Compound 2.26, 2-amino-5-(2-ethylbutyryl)-4-{[5-(N,N′-((S)-1-isopropyl-oxycarbonyl)ethyl)-phosphonamido]furan-2-yl}thiazole] the figure was 16%; with `CCOC(=O)[C@H](C)NP(=O)(N[C@@H](C)C(=O)OCC)c1ccc(-c2nc(N)sc2C(=O)c2ccc(C)cc2)o1` [Compound 2.16, 2-amino-5-(4-methylbenzoyl)-4-{[5-(N,N′-((S)-1-ethyl-oxycarbonyl)ethyl)-phosphonamido]furan-2-yl}thiazole], 6%; with `CCOC(=O)COP(=O)(NC(C)(C)C(=O)OCC)c1ccc(-c2nc(N)sc2C(=O)C2CCC2)o1` (centres unmarked) [Compound 5.4], 16%. On the same count and under the same terms, the same measure for `CC(C)OC(=O)[C@H](C)NP(=O)(N[C@@H](C)C(=O)OC(C)C)c1ccc(-c2nc(N)sc2C(=O)c2cccc(F)c2)o1` [Compound 2.18, 2-amino-5-(3-fluorobenzoyl)-4-{[5-(N,N′-((S)-1-isopropyl-oxycarbonyl)ethyl)-phosphonamido]furan-2-yl}thiazole]: 13%; for `CCOC(=O)[C@H](C)NP(=O)(N[C@@H](C)C(=O)OCC)c1ccc(-c2nc(N)sc2C(=O)c2cccc(F)c2)o1` [Compound 2.19, 2-amino-5-(3-fluorobenzoyl)-4-{[5-(N,N′-((S)-1-ethyloxy-carbonyl)ethyl)-phosphonamido]furan-2-yl}thiazole]: 16%. The same measure, in the same setting: with `CCOC(=O)C(C)(C)NP(=O)(NC(C)(C)C(=O)OCC)c1ccc(-c2nc(N)sc2C(=O)C2CCC2)o1` [Compound 2.29] the figure was 12%; with `CCOC(=O)C(C)(C)NP(=O)(O[C@@H](C)C(=O)OC(C)C)c1ccc(-c2nc(N)sc2C(=O)C(C)(C)C)o1` (some centres unmarked) [Compound 5.10], 4%; with `CCC(C)(CC)C(=O)c1sc(N)nc1-c1ccc(P(=O)(N[C@@H](C)C(=O)OC(C)C)N[C@@H](C)C(=O)OC(C)C)o1` [Compound 2.11, 2-amino-5-(2-ethyl-2-methylbutyryl)-4-{[5-(N,N′-((S)-1-isopropyloxy-carbonyl)-ethyl)phosphonamido]furan-2-yl}thiazole], 13%. As for `CCOC(=O)C(C)(C)NP(=O)(OCC(=O)OCc1ccccc1)c1ccc(-c2nc(N)sc2C(=O)C(C)(C)C)o1` (centres unmarked) [Compound 5.5], at 10 mg/kg the inhibition in vivo was 20%. Same read-out and setting: the same measure for `CCC(CC)C(=O)c1sc(N)nc1-c1ccc(P(=O)(NC(C)(C)C(=O)OC(C)C)NC(C)(C)C(=O)OC(C)C)o1` [Compound 2.25]: 10%; for `CC(=O)SC1CCCCC1OP(=O)(OC1CCCCC1SC(C)=O)c1ccc(-c2nc(N)sc2C(=O)C(C)(C)C)o1` (centres unmarked) [Compound 6.8]: 1%; for `CCC(C)(C)C(=O)c1sc(N)nc1-c1ccc(P(=O)(NCC(=O)OC(C)(C)C)NCC(=O)OC(C)(C)C)o1` [Compound 2.12, 2-amino-5-(2,2-dimethylbutyryl)-4-{[5-(N,N′-tert-butyloxycarbonyl-methyl)phosphonamido]furan-2-yl}thiazole]: 10%. In turn, `CC(C)OC(=O)C(C)(C)NP(=O)(NC(C)(C)C(=O)OC(C)C)c1ccc(-c2nc(N)sc2C(=O)c2cccc(F)c2)o1` [Compound 2.28] displayed an inhibition in vivo at 10 mg/kg of 10%. Still for that read-out and setting: with `Cc1ccccc1C(=O)c1sc(N)nc1-c1ccc(P(=O)(N[C@@H](C)C(=O)OC(C)C)N[C@@H](C)C(=O)OC(C)C)o1` [Compound 2.22, 2-amino-5-(2-methylbenzoyl)-4-{[5-(N,N′-((S)-1-isopropyl-oxycarbonyl)ethyl)-phosphonamido]furan-2-yl}thiazole] the figure was 9%; with `Cc1ccccc1C(=O)c1sc(N)nc1-c1ccc(P(=O)(NC(C)(C)C(=O)OC(C)C)NC(C)(C)C(=O)OC(C)C)o1` [Compound 2.21], 9%.

`CCOC(=O)[C@H](C)NP(=O)(N[C@@H](C)C(=O)OCC)c1ccc(-c2nc(N)sc2C(=O)C(CC)CC)o1` [Compound 2.24, 2-amino-5-(2-ethylbutyryl)-4-{[5-(N,N′-((S)-1′-ethyl-oxycarbonyl)ethyl)-phosphonamido]furan-2-yl}thiazole] gave an inhibition in vivo at 10 mg/kg of 19%. On the same count and under the same terms, with `CCOC(=O)COP(=O)(NC(C)(C)C(=O)OCC)c1ccc(-c2nc(N)sc2C(=O)C(CC)CC)o1` (centres unmarked) [Compound 5.12] the figure was 38%; with `CCC(CC)C(=O)c1sc(N)nc1-c1ccc(P(=O)(OCOC(=O)C(C)(C)C)OCOC(=O)C(C)(C)C)o1` [Compound 8.2, 2-amino-5-(2-ethylbutyryl)-4-{[5-(O,O′-bis(pivalyloxymethyl)-phosphono)]-furan-2-yl}thiazole], 10%. Compound `CCOC(=O)[C@H](C)NP(=O)(N[C@@H](C)C(=O)OCC)c1ccc(-c2nc(N)sc2C(=O)C(C)(CC)CC)o1` [Compound 2.7, 2-amino-5-(2-ethyl-2-methylbutyryl)-4-{[5-(N,N′-((S)-1-ethoxycar-bonyl)ethyl)phosphonamido]furan-2-yl}thiazole] displayed an inhibition in vivo at 10 mg/kg of 10%. Take `CCOC(=O)C(C)(C)NP(=O)(Oc1ccc2c(c1)OCO2)c1ccc(-c2nc(N)sc2C(=O)C(C)(C)C)o1` (centres unmarked) [Compound 5.3]: the inhibition in vivo at 10 mg/kg turned out to be 51%. The same measure, in the same setting: the same measure for `CCOC(=O)OCOP(=O)(OCOC(=O)OCC)c1ccc(-c2nc(N)sc2C(=O)C(C)(C)C)o1` [Compound 8.3, 2-amino-5-(2,2-dimethylpropionyl)-4-{[5-(O,O′-bis(ethoxycarbonyl-oxymethyl)phosphono)]furan-2-yl}thiazole]: 24%; for `CCOC(=O)C(C)(C)NP(=O)(NC(C)(C)C(=O)OCC)c1ccc(-c2nc(N)sc2C(=O)C(CC)CC)o1` [Compound 2.23]: 12%.

As a reminder, the IC50 is the concentration that inhibits the measured activity by half. A word on the inhibition in vivo: it is the change of the read-out against control, counted positive when it falls. Low values mean little suppression, high ones strong suppression.

The record behind these values is patent US20080070868A1, “Novel Thiazole Inhibitors of Fructose 1,6-bisphosphatase” (Metabasis Therapeutics, Inc., priority 2004, published 2008).
